In patent US5242938A, “Derivatives of virginiamycin M1” (Merck & Co., Inc., priority 1992, dated 1993):
Values after ≈ are worked out from the molar mass of the structure shown. Where two headings read alike, the source gives them in different places.

What was measured:
CCK-A (rat pancreas) [1] = molecular target: T1, CCK-A (rat pancreas) (Rattus norvegicus, UniProt P30551); experiment: [125I]BHCCK-8 radioligand binding, rat pancreatic preparation; details: read-out: CCK binding inhibition - IC50, [125I]BHCCK
T1 construct: from tissue; host or cells: rat pancreas
T1 sequence (P30551 1-444): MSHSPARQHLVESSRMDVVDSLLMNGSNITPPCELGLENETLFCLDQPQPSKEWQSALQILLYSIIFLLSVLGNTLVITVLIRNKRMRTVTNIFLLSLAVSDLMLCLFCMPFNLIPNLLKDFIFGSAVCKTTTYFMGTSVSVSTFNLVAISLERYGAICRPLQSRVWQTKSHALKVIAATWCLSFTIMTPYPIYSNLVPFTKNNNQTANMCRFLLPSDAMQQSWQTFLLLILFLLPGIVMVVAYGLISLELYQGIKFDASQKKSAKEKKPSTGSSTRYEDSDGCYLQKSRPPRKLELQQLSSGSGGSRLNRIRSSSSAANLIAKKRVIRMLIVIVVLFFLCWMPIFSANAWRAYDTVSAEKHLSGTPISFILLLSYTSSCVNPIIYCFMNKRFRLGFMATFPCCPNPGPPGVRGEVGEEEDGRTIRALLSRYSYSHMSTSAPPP
Method: (§1) The resulting supernatant was re-spun at 20,000×g for 20 minutes. […] Incubations were for 40 minutes at 4° C. and were terminated by filtration and washing with ice cold 100 mM saline. […] Incubations were for 30 minutes at room temperature and were terminated by filtration over GF/C filters and washing with 100 mM NaCl.

[2] = test system: Bacillus subtilis (Mb 964, ATCC 6633); experiment: Agar diffusion disc assay, Subt 964; type: cell-based; details: Bacillus subtilis, ATCC6633, 18 h; @ 20 g/disc; read-out: Inhibition zone diameter, Subt 964
Method: (§2) Cultures employed in evaluating antimicrobial activity included plant pathogens, human and animal opportunistic pathogens and selected laboratory strains having specific-antibiotic sensitivities or chromosomal or R-plasmid-mediated resistances. […] The agar diffusion MIC's were determined using the method described by Barry in Anitbiotics in Laboratory Medicine, 2nd Ed., Ed. V. Lorian, pp. 1-63, William & Wilkins, Baltimore, 1986. Each test compound was dissolved in methanol to a concentration of 1 mg/ml. Serial dilutions of these compounds were also made to determine an agar diffusion MIC. 20 μl of each dilution was pipetted on to 6 mm paper discs, air dried and placed onto the surface of an agar plate seeded with the appropriate bacteria (~10^6 cfu). Seeded agar plates were incubated overnight (~18 hours) at 25° C. Zone sizes were measured to the nearest mm. Each compound was tested in triplicate and the results shown represent the mean.

[3] = test system: Streptococcus agalactiae (Mb 2875); experiment: Agar diffusion disc assay, Str 2875; type: cell-based; details: Streptococcus agalactiae, 18 h; @ 20 g/disc; read-out: Inhibition zone diameter, Str 2875
Method: as §2

Bacillus sp. (Mb 633) = experiment: Agar diffusion disc assay, Baci 633; type: cell-based; details: Bacillus, 18 h
Method: as §2

[4] = molecular target: T2, CCK-B (guinea pig cortex) (Cavia porcellus, UniProt H0VZC5); experiment: [125I]BHCCK-8 radioligand binding, guinea pig cortical preparation; details: read-out: CCK binding inhibition - IC50, [125I]BHCCK
T2 construct: guinea pig cortical preparations; from tissue; host or cells: guinea pig brain cortex membranes
T2 sequence (H0VZC5 1-426): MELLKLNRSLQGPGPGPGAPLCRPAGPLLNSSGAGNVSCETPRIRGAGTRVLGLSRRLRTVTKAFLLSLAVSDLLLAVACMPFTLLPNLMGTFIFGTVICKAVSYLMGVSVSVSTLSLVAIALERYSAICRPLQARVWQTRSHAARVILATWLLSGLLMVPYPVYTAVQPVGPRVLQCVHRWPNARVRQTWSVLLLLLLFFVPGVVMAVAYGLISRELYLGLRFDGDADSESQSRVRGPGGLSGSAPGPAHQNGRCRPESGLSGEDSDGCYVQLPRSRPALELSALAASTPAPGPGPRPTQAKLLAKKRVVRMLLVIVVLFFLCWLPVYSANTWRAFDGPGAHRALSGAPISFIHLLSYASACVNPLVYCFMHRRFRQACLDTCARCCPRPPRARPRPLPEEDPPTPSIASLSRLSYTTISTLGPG
Method: as §1

[5] = test system: Escherichia coli (Mb 1418); experiment: Agar diffusion disc assay, Coli 1418; type: cell-based; details: Escherichia coli, 18 h; @ 20 g/disc; read-out: Inhibition zone diameter, Coli 1418
Method: as §2

[6] = test system: Micrococcus luteus (Mb 1101, ATCC 9341); experiment: Agar diffusion disc assay, Micr 1101; type: cell-based; details: Micrococcus luteus; for MIC: read-out: Agar Diffusion MIC versus Micrococcus luteus; for zone of inhibition at 2.5 µg/disc: 2.50 μg/disc; for zone of inhibition at 5 µg/disc: 5.00 μg/disc; for zone of inhibition at 10 µg/disc: 10.0 μg/disc
Method: as §2

[7] = molecular target: T2, CCK-B (guinea pig cortex); experiment: [3H]L-365,260 CCK-B selective antagonist ligand binding, brain membranes; details: for IC50: read-out: CCK binding inhibition - IC50, [3H]L-365,260; for percentage in parentheses beside >3.0, [3H]L-365,260 (inhibition at top concentration, not defined): beside IC50 >3.0
Method: as §1

[8] = test system: Staphylococcus aureus (Mb 2983); experiment: Agar diffusion disc assay, Sta 2983; type: cell-based; details: Staphylococcus aureus, 18 h; @ 20 g/disc; read-out: Inhibition zone diameter, Sta 2983
Method: as §2

[9] = test system: Corynebacterium pseudodiphtheriticum (Mb 261, ATCC 9742); experiment: Agar diffusion disc assay, Cory 261; type: cell-based; details: Corynebacterium pseudodiphtheriticum, ATCC9742, 18 h; @ 20 g/disc; read-out: Inhibition zone diameter, Cory 261
Method: as §2

[10] = test system: En terobacter aergenes (Mb 835); experiment: Agar diffusion disc assay, Ent 835; type: cell-based; details: 18 h; @ 20 g/disc; read-out: Inhibition zone diameter, Ent 835
Method: as §2

[11] = test system: Pseudomonas stutzeri (Mb 1231, ATCC 11607); experiment: Agar diffusion disc assay, Pseu 1231; type: cell-based; details: Stutzerimonas stutzeri, ATCC11607, 18 h; @ 20 g/disc; read-out: Inhibition zone diameter, Pseu 1231
Method: as §2

[12] = test system: Salmonella gallinarum (Mb 1287); experiment: Agar diffusion disc assay, Salm 1287; type: cell-based; details: Salmonella enterica, GALLINARUM, 18 h; @ 20 g/disc; read-out: Inhibition zone diameter, Salm 1287
Method: as §2

[13] = test system: Staphylococcus aureus (Mb 108, ATCC 6538P); experiment: Agar diffusion disc assay, Sta 108; type: cell-based; details: Staphylococcus aureus, ATCC6538P, 18 h; @ 20 g/disc; read-out: Inhibition zone diameter, Sta 108
Method: as §2

[14] = test system: Streptococcus faecium (Mb 2820); experiment: Agar diffusion disc assay, Str 2820; type: cell-based; details: Enterococcus faecium, 18 h; @ 20 g/disc; read-out: Inhibition zone diameter, Str 2820
Method: as §2

CCK-A (rat pancreas) [15] = molecular target: T1, CCK-A (rat pancreas); experiment: [3H]L-364,718 CCK-A selective antagonist ligand binding, pancreas; details: for IC50: read-out: CCK binding inhibition - IC50, [3H]L-364,718
Method: as §1

[16] = @ 20 g/disc, read-out: Inhibition zone diameter, Baci 633
[17] = ATCC9341, 18 h, @ 20 g/disc, read-out: Inhibition zone diameter, Micr 1101
[18] = ATCC9341, 25° C., ~18 hours, read-out: Mean of triplicate zone size versus Micrococcus luteus
[19] = ATCC9341, 20.0 μg/disc, 25° C., ~18 hours, read-out: Mean of triplicate zone size versus Micrococcus luteus

Row | SMILES | IC50 (CCK-A (rat pancreas) [1]) | zone of inhibition at 20 µg/disc [2] | zone of inhibition at 20 µg/disc [3] | IC50 [4] | zone of inhibition at 20 µg/disc [5] | zone of inhibition at 20 µg/disc [6, 17] | MIC ([6]; ATCC9341, 18 h) | zone of inhibition at 5 µg/disc [6, 18] | zone of inhibition at 10 µg/disc [6, 18] | zone of inhibition at 20 µg/disc [6, 19] | A.R. = agonist ratio = IC50([3H]L365,260)/IC50([125I]CCK) [7] | IC50 [7] | zone of inhibition at 20 µg/disc [8] | zone of inhibition at 20 µg/disc [9] | zone of inhibition at 20 µg/disc [10] | zone of inhibition at 20 µg/disc [11] | zone of inhibition at 20 µg/disc [12] | zone of inhibition at 20 µg/disc [13] | zone of inhibition at 20 µg/disc [14] | IC50 (CCK-A (rat pancreas) [15]) | also measured
1 | CC1=C\[C@@H](OC(=O)Nc2ccccc2)CC(=O)Cc2nc(co2)C(=O)N2CCC=C2C(=O)O[C@H](C(C)C)[C@H](C)/C=C/C(=O)NC\C=C\1 [Example 11] | 2300 nM | 0 mm | 0 mm | 300 nM | 0 mm | 14 mm | 0.05 µM (≈ 0.0322 µg/mL) | 11 mm | 12 mm | 12 mm | 5.3 | 1600 nM | 0 mm | 0 mm | 0 mm | 0 mm | 0 mm | 0 mm | 0 mm | 4000 nM | zone of inhibition at 20 µg/disc (Bacillus sp. (Mb 633); [16]): 0 mm; zone of inhibition at 1.25 µg/disc ([6]; ATCC9341, 1.25 μg/disc, 25° C., ~18 hours, read-out: Mean of triplicate zone size versus Micrococcus luteus): 7 mm; zone of inhibition at 2.5 µg/disc [6, 18]: 10 mm; A.R. = agonist ratio (CCK-A (rat pancreas) [15]; [3H]L-364,718 / [125I]BHCCK): 1.7
2 | CC(=O)O[C@@H]1/C=C(C)/C=C/CNC(=O)/C=C/[C@@H](C)[C@@H](C(C)C)OC(=O)C2=CCCN2C(=O)c2coc(n2)CC(=O)C1 [Example 2] | > 3000 nM | 0 mm | 0 mm | 700 nM | 0 mm | 21 mm | 3.24 µM (≈ 1.84 µg/mL) | 14 mm | 18 mm | 21 mm | > 25 | > 3000 nM | 0 mm | 13 mm | 0 mm | 0 mm | 0 mm | 11 mm | 0 mm | > 3000 nM | zone of inhibition at 20 µg/disc (Bacillus sp. (Mb 633); [16]): 0 mm; zone of inhibition at 2.5 µg/disc [6, 18]: 7 mm; percentage in parentheses beside >3.0, [3H]L-365,260 (inhibition at top concentration, not defined) [7]: 21%
3 | CC(=O)OC1=Cc2nc(co2)C(=O)N2CCC=C2C(=O)O[C@H](C(C)C)[C@H](C)/C=C/C(=O)NC/C=C/C(C)=C/[C@@H](OC(C)=O)C1 [Example 1] | > 3000 nM | 0 mm | 0 mm | 800 nM | 0 mm | 17 mm | 1.92 µM (≈ 1.17 µg/mL) | 12 mm | 15 mm | 16 mm | > 25 | > 3000 nM | 0 mm | 14 mm | 0 mm | 0 mm | 0 mm | 9 mm | 0 mm | > 3000 nM | zone of inhibition at 20 µg/disc (Bacillus sp. (Mb 633); [16]): 0 mm; percentage in parentheses beside >3.0, [3H]L-365,260 (inhibition at top concentration, not defined) [7]: 13%
4 | CCC(=O)O[C@@H]1/C=C(C)/C=C/CNC(=O)/C=C/[C@@H](C)[C@@H](C(C)C)OC(=O)C2=CCCN2C(=O)c2coc(n2)CC(=O)C1 [Example 3] | > 3000 nM | 21 mm | 0 mm | 600 nM | 0 mm | 0 mm | 2.51 µM (≈ 1.46 µg/mL) | 13 mm | 17 mm | 19 mm | 2 | 1000 nM | 12 mm | 0 mm | 0 mm | 0 mm | 0 mm | 0 mm | 0 mm | > 3000 nM | zone of inhibition at 20 µg/disc (Bacillus sp. (Mb 633); read-out: Inhibition zone diameter, Baci 633, @ 20 g/disc): 11 mm; zone of inhibition at 2.5 µg/disc [6, 18]: 7 mm
